Measurements reported in patent US11130780B2, “Inhibitors of growth factor activation enzymes” (Washington University, priority 2015, dated 2021).
Like-named read-outs stand apart in the source and are kept apart here.

How the values were obtained:
Assay type in all cases: biochemical
HGFA = molecular target: T1, HGFA (Homo sapiens, UniProt Q04756); test: Fluorescent kinetic enzyme inhibitor assay of HGFA
T1 construct: His6 tag (N); seven amino acid spacer and seven amino acid TEV cleavage site (N); Honey Bee melittin signal peptide (N); made in house; host or cells: High 5 insect cells (baculovirus; virus raised in Sf9)
T1 sequence (Q04756 373-655): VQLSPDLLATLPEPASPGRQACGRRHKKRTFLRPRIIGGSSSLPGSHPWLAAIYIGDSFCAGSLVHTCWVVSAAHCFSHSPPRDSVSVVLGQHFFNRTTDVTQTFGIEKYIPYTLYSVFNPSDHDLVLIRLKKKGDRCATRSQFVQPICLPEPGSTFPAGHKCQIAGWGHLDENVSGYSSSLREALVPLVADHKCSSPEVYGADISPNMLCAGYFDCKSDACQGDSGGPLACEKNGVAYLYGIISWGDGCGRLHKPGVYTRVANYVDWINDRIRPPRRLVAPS
In short: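 Recombinant His-tagged HGFA residues 373-655 from insect cells, with substrate at Km. Inhibitors in 11-point dilutions, 0-20 μM final, 2% DMSO, fluorescence (ex 380/em 460 nm) followed over time at room temperature. IC50 from four-parameter fit of mean velocity, average of three experiments.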

matriptase = molecular target: T2, matriptase (Homo sapiens, UniProt Q9Y5Y6); test: Fluorescent kinetic enzyme inhibitor assay of matriptase; conditions: for IC50: Table 4.1; for Ki: Table 4.2, Boc-QAR-AMC substrate
T2 construct: Charles Craik, UCSF (obtained from another laboratory)
T2 sequence (Q9Y5Y6 615-855 limits assumed): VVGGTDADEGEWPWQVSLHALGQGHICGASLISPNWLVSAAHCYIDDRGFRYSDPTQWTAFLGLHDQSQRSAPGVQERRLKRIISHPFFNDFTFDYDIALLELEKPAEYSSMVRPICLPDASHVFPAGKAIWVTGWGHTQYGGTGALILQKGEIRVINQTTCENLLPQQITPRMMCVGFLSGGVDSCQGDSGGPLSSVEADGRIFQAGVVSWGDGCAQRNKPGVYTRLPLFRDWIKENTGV
In short: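 Fluorescence (ex 380/em 460 nm) followed kinetically at room temperature; IC50 from four-parameter fit of mean velocity versus concentration, averaged over three experiments.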

thrombin = thrombin (Homo sapiens, UniProt P00734); test: Chromogenic kinetic enzyme assay of thrombin; conditions: Table 4.1; read-out: Thrombin Ki
In short: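 Recombinant human thrombin (0.15 nM) or Factor Xa (0.35 nM) was mixed with 11-point inhibitor dilutions (0–20 μM, 2% DMSO) in TNC buffer, pH 8. Kinetic absorbance at 405 nm gave velocities. IC50 came from a four-parameter fit and Ki from Cheng–Prusoff.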

Factor Xa = Factor Xa (Homo sapiens, UniProt P00742); test: Chromogenic kinetic enzyme assay of Factor Xa; conditions: Table 4.1; read-out: Factor Xa Ki
Factor Xa, sequence (P00742 235-488 limits assumed): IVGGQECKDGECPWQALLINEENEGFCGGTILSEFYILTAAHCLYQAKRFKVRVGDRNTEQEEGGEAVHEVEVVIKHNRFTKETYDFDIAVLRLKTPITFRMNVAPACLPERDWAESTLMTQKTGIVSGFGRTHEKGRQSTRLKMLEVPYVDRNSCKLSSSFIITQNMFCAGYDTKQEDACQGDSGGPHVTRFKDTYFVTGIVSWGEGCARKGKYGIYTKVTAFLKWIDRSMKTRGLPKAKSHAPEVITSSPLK
Factor Xa, sequence (P00742 41-179 partner limits assumed): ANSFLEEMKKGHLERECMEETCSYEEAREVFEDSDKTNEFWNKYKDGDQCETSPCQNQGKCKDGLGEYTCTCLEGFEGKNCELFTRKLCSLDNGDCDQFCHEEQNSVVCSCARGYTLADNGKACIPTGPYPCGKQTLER
Method: Inhibitors (11-pt serial dilutions, 0-20 μM final concentration) were serially diluted in DMSO (2% DMSO final concentration) and then mixed with recombinant thrombin (0.15 nM final concentration) or Factor Xa (0.35 nM final concentration) in TNC buffer (25 mM Tris, 150 mM NaCl, 5 mM CaCl2, 0.01% TRITON X-100, pH 8) using clear 384 well plates. […] Changes in absorbance at 405 nm were measured over time in a Biotek Synergy 2 plate (Winnoski, Vt.). Using GraphPad Prism version 6.04 software program, (GraphPad Software, San Diego, Calif., www.graphpad.com), a four parameter curve fit was used to determine the inhibitor IC50s from a plot of the mean reaction velocity versus the inhibitor concentration. Ki values were calculated from the IC50 values using the Cheng and Prusoff equation (Ki=IC50/(1+[S]/Km).

[1] = Table 4.2, Boc-QLR-AMC substrate, read-out: HGFA Ki

## CC(=O)N[C@@H](CCCCN)C(=O)N[C@@H](CCC(N)=O)C(=O)N[C@@H](CC(C)C)C(=O)N[C@@H](CCCNC(=N)N)C(=O)c1nccs1 [Compound 5, Ac-KQLR(SEQ ID NO: 1)-kt]
HGFA; [1]
  Ki: 70 nM
HGFA; read-out: Ki for HGFA
  Ki: 53 nM
matriptase
  fold more potent for matriptase versus HGFA: 50 fold
  IC50: 5 nM
  Ki: 1.6 nM
thrombin
  Ki: > 20000 nM
Factor Xa
  Ki: 170 nM

## CC(=O)N[C@@H](CCCCN)C(=O)N[C@@H](CCC(N)=O)C(=O)N[C@@H](Cc1ccccc1)C(=O)N[C@@H](CCCNC(=N)N)C(=O)c1nccs1 [Compound 5c, Ac-KQFR(SEQ ID NO: 4)-kt]
HGFA; [1]
  Ki: 58 nM
matriptase
  Ki: 0.69 nM
thrombin
  Ki: > 20000 nM
Factor Xa
  Ki: 78.8 nM

## CC(=O)N[C@@H](CCCNC(=N)N)C(=O)N[C@@H](CCC(N)=O)C(=O)N[C@@H](CC(C)C)C(=O)N[C@@H](CCCNC(=N)N)C(=O)c1nccs1 [Compound 5e, Ac-RQLR(SEQ ID NO: 6)-kt]
HGFA; [1]
  Ki: 60 nM
matriptase
  IC50: 1 nM
thrombin
  Ki: > 20000 nM
Factor Xa
  Ki: 8.1 nM

## CC(=O)N[C@@H](CCCCN)C(=O)N[C@@H](CCCNC(=N)N)C(=O)N[C@@H](CC(C)C)C(=O)N[C@@H](CCCNC(=N)N)C(=O)c1nccs1 [Compound 5g, Ac-KRLR(SEQ ID NO: 8)-kt]
HGFA; [1]
  Ki: 12 nM
matriptase
  IC50: 14 nM

## CC(=O)N[C@@H](Cc1c[nH]c2ccccc12)C(=O)N[C@@H](CCCNC(=N)N)C(=O)N[C@@H](CC(C)C)C(=O)N[C@@H](CCCNC(=N)N)C(=O)c1nccs1 [Compound 5h, Ac-WRLR(SEQ ID NO: 9)-kt]
HGFA; [1]
  Ki: 21 nM
matriptase
  IC50: 31 nM

## CC(=O)N[C@@H](CO)C(=O)N[C@@H](CCCCN)C(=O)N[C@@H](CC(C)C)C(=O)N[C@@H](CCCNC(=N)N)C(=O)c1nccs1 [Compound 6, Ac-SKLR(SEQ ID NO: 10)-kt]
HGFA; read-out: Ki for HGFA
  Ki: 81 nM
matriptase
  fold more potent for matriptase versus HGFA: only slightly more potent
  IC50: 48 nM
thrombin
  Ki: > 20000 nM
Factor Xa
  Ki: 3060 nM

## CC(=O)N[C@@H](CO)C(=O)N[C@@H](CCCCN)C(=O)N[C@@H](Cc1ccccc1)C(=O)N[C@@H](CCCNC(=N)N)C(=O)c1nccs1 [Compound 6c, Ac-SKFR(SEQ ID NO: 13)-kt]
HGFA
  selectivity among HGFA, matriptase and hepsin: HGFA selectivity over both hepsin and matriptase
HGFA; [1]
  Ki: 57 nM
matriptase
  IC50: 34 nM
thrombin
  Ki: > 2000 nM
Factor Xa
  Ki: 530 nM

## CC(=O)N[C@@H](CO)C(=O)N[C@@H](CCCNC(=N)N)C(=O)N[C@@H](CC(C)C)C(=O)N[C@@H](CCCNC(=N)N)C(=O)c1nccs1 [Compound 6e, Ac-SRLR(SEQ ID NO: 15)-kt]
HGFA
  selectivity among HGFA, matriptase and hepsin: HGFA selectivity over both hepsin and matriptase
HGFA; [1]
  Ki: 24 nM
matriptase
  IC50: 24 nM

## CC(=O)N[C@@H](CO)C(=O)N[C@@H](Cc1c[nH]c2ccccc12)C(=O)N[C@@H](CC(C)C)C(=O)N[C@@H](CCCNC(=N)N)C(=O)c1nccs1 [Compound 6g, Ac-SWLR(SEQ ID NO: 17)-kt]
HGFA
  selectivity among HGFA, matriptase and hepsin: HGFA selectivity over both hepsin and matriptase
HGFA; [1]
  Ki: 63 nM
HGFA; read-out: Ki for HGFA
  Ki: 66 nM
matriptase
  IC50: 175 nM
thrombin
  Ki: 3700 nM
Factor Xa
  Ki: 759 nM

## N=C(N)c1ccc2cc(OC(=O)c3ccc(N=C(N)N)cc3)ccc2c1 [Nafamostat, reference compound]
HGFA; [1]
  Ki: 25 nM
